Assay results taken from patent publication US20130095059A1, “INHALED NO DONOR KMUPS DERIVATIVE PREVENTING ALLERGIC PULMONARY VASCULAR AND BRONCHIAL INFLAMMATION VIA SUPPRESSED CYTOKINES, INOS AND INFLAMMATORY CELL COUNTS IN ASTHMA MODEL” (priority 2007, published 2013).

Test system: 5-HT
Assay: Plasma 5-HT levels in MCT-treated rats (Serotonin EIA)
Assay type: in vivo, Wistar rats
Conditions: MCT-PAH rats, non-treated MCT-PAH 4.2±0.7
Description: The experiments were performed in adult male Wistar rats (300 to 350 g) in accordance with institutional guidelines after approval by the ethical review committee. PAH development and pulmonary expression of 5-HTT were examined in rats after 60 mg/kg single injection (i.p.) of monocrotaline (MCT). To assess the potential preventive effect of KMUP-1 on MCT-induced PAH and associated proliferation, we assigned rats at random to 2 groups of 8 animals which received KMUP-1 at 5 mg/kg/day p.o or 1 mg/kg/day i.p. All treatments were given once a day for 3 weeks after a single MCT injection (60 mg/kg i.p.) (Abe et al., 2004). On day 21, rats were anesthetized and pulmonary artery blood pressure (MPAP) was recorded as previously described. Lung tissues were dissected for Western blotting and immunohistochemistry.
After MCT-treatment, rats acquired severe PAH and received sodium pentobarbital (40 mg/kg, i.p.) at day 21 for surgical anesthesia and measurement of MPAP (Chung et al., 2010). Blood samples (1.0 mL) were obtained from the heart. Blood was transferred to plastic tubes that included EDTA and was centrifuged at 100 g for 20 min. The plasma was transferred to tubes and stored at −80° C. until analysis. Plasma 5-HT levels were determined using commercially available Serotonin EIA (IBL, Minneapolis, USA). […] Results were read from a standard curve. […]

## Cn1c(=O)c2c(ncn2CCN2CCN(c3ccccc3Cl)CC2)n(C)c1=O [KMUP-1, 7-[2-[4-(2-chlorophenyl)piperazinyl]ethyl]-1,3-dimethylxanthine]
1 mg/kg i.p.
  plasma concentration of 5-HT: 3.2 ± 0.6 ng/mL
5 mg/kg p.o.
  plasma concentration of 5-HT: 3.2 ± 0.5 ng/mL
